What all share (format): cell-based
In assay [1] the test system is Streptomyces spheroides NRRL 15600. Nature of the assay: antibiotic sensitivity of the producing culture. An excerpt:
In classifying the microorganism as a new strain of S. spheroides, the methods recommended by the International Streptomyces Project (ISP) for the characterization of Streptomyces species [E. B. Shirling and D. Gottlieb, "Methods of Characterization of Streptomyces species," Int. J. Syst. Bacteriol. 16(3), 313-340 (1966)] were followed along with certain supplementary tests.

Assay [2] deals with Escherichia coli. Nature of the assay: antibiotic activity of column fractions. How it is done: (§1) Whole broth (100 L), prepared in a manner similar to that of Example 1, Section B, was filtered using a filter aid (Hyflo Supercel, Johns-ManvilleCorp.). The filtered broth (86 L) is adjusted to pH 2 with 5N hydrochloric acid and then is extracted twice with ethyl acetate (1/2 volumes). The ethyl acetate extracts are concentrated under vacuum to give an oily residue (49 g). This residue is dissolved in methanol and placed on a 10-L Diaion HP-20 column (Mitsubishi Industries). The column is washed with water (500 ml) and eluted with acetonitrile:water (30 L of 3:7 and 50 L of 3:2) and acetonitrile (20 L). Elution is carried out at a rate of 100 ml/min., collecting 4-liter fractions. Fractions are tested for antibiotic activity against Micrococcus luteus, Escherichia coli, and Neurospora crassa.

For assay [3], the system named is Staphylococcus epidermidis EPI1. Nature of the assay: standard agar-dilution MIC assay. An excerpt: (§2) Table V summarizes the minimal inhibitory concentrations (MIC) at which factor S-1 inhibits certain organisms as determined by standard agar-dilution assays. In Table V, the activity of factor S-1 is compared with that of rifampin.
Assay [4] concerns Salmonella typhi 1335. Nature of the assay: standard agar-dilution MIC assay. To be noted: Salmonella enterica.
Source text: as §2

Assay [5] deals with Streptococcus pneumoniae Park 1. Nature of the assay: standard agar-dilution MIC assay. Conditions: Streptococcus pneumoniae, PARK1.
Source text: as §2

In assay [6] the test system is Enterobacter cloacae EB5. Nature of the assay: standard agar-dilution MIC assay. Conditions: Enterobacter cloacae, EB5.
Source text: as §2

The test system of assay [7] is Serratia marcescens SE3. Nature of the assay: standard agar-dilution MIC assay. Conditions: Serratia marcescens, SE3.
Source text: as §2

Assay [8] has as its system Streptococcus sp. group D 9960. Nature of the assay: standard agar-dilution MIC assay. Conditions: Streptococcus.
Source text: as §2

The test system of assay [9] is Streptococcus pyogenes C203. Nature of the assay: standard agar-dilution MIC assay.
Source text: as §2

Assay [10] deals with Staphylococcus epidermidis 222. Nature of the assay: standard agar-dilution MIC assay. To be noted: Staphylococcus epidermidis, 222.
Source text: as §2

The subject of assay [11] is Enterobacter aerogenes C32. Nature of the assay: standard agar-dilution MIC assay. Conditions: Klebsiella aerogenes, C32.
Source text: as §2

The subject of assay [12] is Pseudomonas aeruginosa X239. Nature of the assay: standard agar-dilution MIC assay. To be noted: Pseudomonas aeruginosa, X239.
Source text: as §2

Assay [13] has as its system Staphylococcus aureus NRRL B313. Nature of the assay: standard agar-dilution MIC assay. Conditions: Staphylococcus aureus, NRRLB313.
Source text: as §2

The test system of assay [14] is Pseudomonas aeruginosa Ps18. Nature of the assay: standard agar-dilution MIC assay.
Source text: as §2

For assay [15], the system named is Proteus rettgeri C24. Nature of the assay: standard agar-dilution MIC assay. To be noted: Providencia rettgeri, C24.
Source text: as §2

For assay [16], the system named is Citrobacter freundii CF17. Nature of the assay: standard agar-dilution MIC assay. Conditions: Citrobacter freundii, CF17.
Source text: as §2

The subject of assay [17] is Staphylococcus aureus X400. Nature of the assay: standard agar-dilution MIC assay. To be noted: Staphylococcus aureus, X400.
Source text: as §2

The test system of assay [18] is Proteus inconstans PR33. Nature of the assay: standard agar-dilution MIC assay. Conditions: Providencia alcalifaciens, PR33.
Source text: as §2

Assay [19] has as its system Enterobacter cloacae 265A. Nature of the assay: standard agar-dilution MIC assay. Conditions: Enterobacter cloacae, 265A.
Source text: as §2

The test system of assay [20] is Klebsiella pneumoniae X68. Nature of the assay: standard agar-dilution MIC assay. Conditions: Klebsiella pneumoniae, X68.
Source text: as §2

Assay [21] has as its system Staphylococcus aureus V41. Nature of the assay: standard agar-dilution MIC assay. Conditions: Staphylococcus aureus, V41.
Source text: as §2

Assay [22] deals with Klebsiella pneumoniae X26. Nature of the assay: standard agar-dilution MIC assay. Conditions: Klebsiella pneumoniae, X26.
Source text: as §2

The test system of assay [23] is Escherichia coli N10. Nature of the assay: standard agar-dilution MIC assay.
Source text: as §2

Assay [24] has as its system Streptococcus faecium ATCC 9790. Nature of the assay: standard agar-dilution MIC assay. Conditions: Enterococcus faecium, ATCC9790.
Source text: as §2

Assay [25] deals with Enterobacter aerogenes EB17. Nature of the assay: standard agar-dilution MIC assay. To be noted: Klebsiella aerogenes, EB17.
Source text: as §2

Assay [26] concerns Staphylococcus aureus S13E. Nature of the assay: standard agar-dilution MIC assay.
Source text: as §2

Assay [27] has as its system Klebsiella pneumoniae KAE. Nature of the assay: standard agar-dilution MIC assay. To be noted: Klebsiella pneumoniae.
Source text: as §2

In assay [28] the test system is Proteus morganii PR15. Nature of the assay: standard agar-dilution MIC assay. Conditions: Morganella morganii, PR15.
Source text: as §2

Assay [29] concerns Pseudomonas aeruginosa X528. Nature of the assay: standard agar-dilution MIC assay. Conditions: Pseudomonas aeruginosa, X528.
Source text: as §2

Assay [30] deals with Shigella sonnei N9. Nature of the assay: standard agar-dilution MIC assay.
Source text: as §2

Assay [31] has as its system Escherichia coli EC14. Nature of the assay: standard agar-dilution MIC assay.
Source text: as §2

Assay [32] has as its system Serratia marcescens X99. Nature of the assay: standard agar-dilution MIC assay. Conditions: Serratia marcescens, X99.
Source text: as §2

The subject of assay [33] is Salmonella typhi X514. Nature of the assay: standard agar-dilution MIC assay. To be noted: Salmonella enterica.
Source text: as §2

The test system of assay [34] is Escherichia coli TEM. Nature of the assay: standard agar-dilution MIC assay.
Source text: as §2

The test system of assay [35] is Neurospora crassa. Nature of the assay: antibiotic activity of column fractions. How it is done:
as §1

In brackets after ≈: the same amount, converted by molar mass. Positions of bridges follow the written chain, without caps; N, C: chain ends. Non-standard residues stand in square brackets, D forms with d. Residues, ends and D or L forms follow the SMILES beside them. *: point of attachment. Ileψ(thiazoline)Cys = CC[C@H](C)[C@H](N)C1=N[C@H](C(=O)*)CS1; dOrn = NCCC[C@@H](N)C(=O)O

In the case of `O=C(N[C@H](CO)[C@H](O)c1ccc([N+](=O)[O-])cc1)C(Cl)Cl` [Chloramphenicol], in [1], the “resistance / sensitivity of the culture to antibiotic” value (“resistance / sensitivity” below) is “resistant”. Besides, in assay [2], the “activity against E. coli” value is on record as “active”.
In the case of polymyxin B, the “resistance / sensitivity” value in assay [1] is given as “sensitive”.
`[H]/N=C(/N)N[C@H]1[C@H](O)[C@@H](O)[C@H](O[C@@H]2O[C@@H](C)[C@](O)(C=O)[C@H]2O[C@@H]2O[C@@H](CO)[C@H](O)[C@@H](O)[C@@H]2NC)[C@@H](N/C(N)=N\[H])[C@@H]1O` [streptomycin]: the “resistance / sensitivity” value in assay [1] was “sensitive”.
On the same count and under the same terms, in the case of gentamicin it was “sensitive”.
For the compound `CO[C@@H]1[C@@H](OC(N)=O)[C@@H](O)[C@H](Oc2ccc3c(O)c(NC(=O)c4ccc(O)c(CC=C(C)C)c4)c(=O)oc3c2C)OC1(C)C` [novobiocin], the “resistance / sensitivity” value in assay [1] is given as “sensitive”.
Turning to `CO[C@H]1/C=C/O[C@@]2(C)Oc3c(C)c(O)c4c(O)c(c(/C=N/N5CCN(C)CC5)c(O)c4c3C2=O)NC(=O)/C(C)=C\C=C\[C@H](C)[C@H](O)[C@@H](C)[C@@H](O)[C@@H](C)[C@H](OC(C)=O)[C@@H]1C` [Rifampin, reference compound], the “resistance / sensitivity” value in assay [1] was “resistant”. Besides, the MIC in [3] came out at 0.06 µg/mL (≈ 0.0729 µM); in assay [4], 16 µg/mL (≈ 19.4 µM); in [5], 0.125 µg/mL (≈ 0.152 µM); in [6], 32 µg/mL (≈ 38.9 µM); in assay [7] it was 64 µg/mL (≈ 77.8 µM); in assay [8] it was 2 µg/mL (≈ 2.43 µM). Besides, the MIC was 0.25 µg/mL (≈ 0.304 µM) in assay [9]; 0.06 µg/mL (≈ 0.0729 µM) in assay [10]; 32 µg/mL (≈ 38.9 µM) in assay [11]; 16 µg/mL (≈ 19.4 µM) in assay [12]; 0.03 µg/mL (≈ 0.0365 µM) in [13]; more than 128 µg/mL in assay [14]. In addition, the minimum inhibitory concentration (MIC) in assay [15] is 8 µg/mL (≈ 9.72 µM); in [16], 16 µg/mL (≈ 19.4 µM); in assay [17], 0.06 µg/mL (≈ 0.0729 µM); in [18] it was 16 µg/mL (≈ 19.4 µM); in assay [19], 32 µg/mL (≈ 38.9 µM); in [20], 16 µg/mL (≈ 19.4 µM). For the same compound, the minimum inhibitory concentration (MIC) in assay [21] was found to be 0.015 µg/mL (≈ 0.0182 µM); in assay [22], 16 µg/mL (≈ 19.4 µM); in assay [23], 16 µg/mL (≈ 19.4 µM); in [24], 2 µg/mL (≈ 2.43 µM); in assay [25], 32 µg/mL (≈ 38.9 µM); in assay [26] it was 0.03 µg/mL (≈ 0.0365 µM). Further, the MIC in assay [27] was found to be 32 µg/mL (≈ 38.9 µM); in [28], 32 µg/mL (≈ 38.9 µM); in [29], 16 µg/mL (≈ 19.4 µM); in assay [30], 16 µg/mL (≈ 19.4 µM); in assay [31], 16 µg/mL (≈ 19.4 µM); in assay [32] it was 32 µg/mL (≈ 38.9 µM). Moreover, the minimum inhibitory concentration (MIC) came out at 16 µg/mL (≈ 19.4 µM) in [33] and 128 µg/mL (≈ 156 µM) in [34].
With `CC[C@H](C)[C@H](N)C1=N[C@H](C(=O)N[C@@H](CC(C)C)C(=O)N[C@H](CCC(=O)O)C(=O)N[C@H](C(=O)N[C@H]2CCCCNC(=O)[C@H](CC(N)=O)NC(=O)[C@@H](CC(=O)O)NC(=O)[C@H](Cc3cnc[nH]3)NC(=O)[C@@H](Cc3ccccc3)NC(=O)[C@H]([C@@H](C)CC)NC(=O)[C@@H](CCCN)NC2=O)[C@@H](C)CC)CS1` [bacitracin] ({Ileψ(thiazoline)Cys}-L[dE]IK[dOrn]I[dF]H[dD]N; lactam 4-C), in assay [1], the “resistance / sensitivity” value is “sensitive”.
The same measure, in the same setting: in the case of `CN(C)[C@@H]1C(O)=C(C(N)=O)C(=O)[C@@]2(O)C(O)=C3C(=O)c4c(O)cccc4[C@@](C)(O)[C@H]3C[C@@H]12` [tetracycline] it was “sensitive”; in that of `NC[C@@H]1O[C@H](O[C@H]2[C@@H](O)[C@H](O[C@@H]3[C@@H](O)[C@H](N)C[C@H](N)[C@H]3O[C@H]3O[C@H](CN)[C@@H](O)[C@H](O)[C@H]3N)O[C@@H]2CO)[C@H](N)[C@@H](O)[C@@H]1O` [neomycin], “sensitive”.
The same measure, in the same setting: in the case of `CN[C@H](CC(C)C)C(=O)N[C@H]1C(=O)N[C@@H](CC(N)=O)C(=O)N[C@H]2C(=O)N[C@H]3C(=O)N[C@H](C(=O)N[C@H](C(=O)O)c4cc(O)cc(O)c4-c4cc3ccc4O)[C@H](O)c3ccc(c(Cl)c3)Oc3cc2cc(c3O[C@@H]2O[C@H](CO)[C@@H](O)[C@H](O)[C@H]2O[C@H]2C[C@](C)(N)[C@H](O)[C@H](C)O2)Oc2ccc(cc2Cl)[C@H]1O` [vancomycin] it was “sensitive”; in that of `CC1(C)S[C@@H]2[C@H](NC(=O)Cc3ccccc3)C(=O)N2[C@H]1C(=O)O` [penicillin G], “sensitive”; in that of `Nc1ccc(S(=O)(=O)Nc2ncccn2)cc1` [sulfadiazine], “sensitive”.
Regarding `C[C@@H]1C[C@@H]([C@H](O)CC2CC(=O)NC(=O)C2)C(=O)[C@@H](C)C1` [Cycloheximide], the “activity against N. crassa” value in [35] is “active”.
As for `CCC[C@@H]1C[C@@H](C(=O)N[C@@H]([C@H]2O[C@H](SC)[C@H](O)[C@@H](O)[C@H]2O)[C@@H](C)O)N(C)C1` [lincomycin], the “resistance / sensitivity” value in [1] is reported as “resistant”.
The same measure, in the same setting: the result for `CC(=O)OCC1=C(C(=O)O)N2C(=O)[C@@H](NC(=O)Cc3cccs3)[C@H]2SC1` [cephalothin] reads “sensitive”.
Same read-out and setting: the result for `CC[C@H]1OC(=O)[C@H](C)[C@@H](O[C@H]2C[C@@](C)(OC)[C@@H](O)[C@H](C)O2)[C@H](C)[C@@H](O[C@@H]2O[C@H](C)C[C@H](N(C)C)[C@H]2O)[C@](C)(O)C[C@@H](C)C(=O)[C@H](C)[C@@H](O)[C@]1(C)O` [erythromycin] reads “sensitive”.
Still for that read-out and setting: the result for `CCn1cc(C(=O)O)c(=O)c2ccc(C)nc21` [nalidixic acid] reads “resistant”.

The values above are taken from US4560509A, “Antibiotic A39079 factor S-1” (Eli Lilly and Company, priority 1983, dated 1985).
